Laboratory results taken from US10493070B2 (priority 2016, dated 2019).

Tested on: recombinant NL4-3 virus (NLRluc, Renilla luciferase in nef, Gag P373S)
Experiment: HIV cell culture assay (Renilla luciferase reporter virus in MT-2 cells)
Assay type: cell-based
Details: Renilla, NL43, read-out: 10% FBS EC50, 10% FBS, class symbols A/B/C
Protocol: MT-2 cells and 293T cells were obtained from the NIH AIDS Research and Reference Reagent Program. MT-2 cells were propagated in RPMI 1640 media supplemented with 10% heat inactivated fetal bovine serum, […]. The 293T cells were propagated in DMEM media supplemented with 10% heat inactivated fetal bovine serum (FBS), 100 units/ml penicillin G and 100 μg/ml streptomycin. The proviral DNA clone of NL4-3 was obtained from the NIH AIDS Research and Reference Reagent Program. A recombinant NL4-3 virus, in which a section of the nef gene from NL4-3 was replaced with the Renilla luciferase gene, was used as a reference virus. In addition, residue Gag P373 was converted to P373S. Briefly, the recombinant virus was prepared by transfection of the altered proviral clone of NL4-3. Transfections were performed in 293T cells using LipofectAMINE PLUS from Invitrogen (Carlsbad, Calif.), according to manufacturer's instruction. The virus was titered in MT-2 cells using luciferase enzyme activity as a marker. Luciferase was quantitated using the Dual Luciferase kit from Promega (Madison, Wis.), with modifications to the manufacturer's protocol. The diluted Passive Lysis solution was pre-mixed with the re-suspended Luciferase Assay Reagent and the re-suspended Stop & Glo Substrate (2:1:1 ratio). Fifty (50) μL of the mixture was added to each aspirated well on assay plates and luciferase activity was measured immediately on a Wallac TriLux (Perkin-Elmer). Antiviral activities of inhibitors toward the recombinant virus were quantified by measuring luciferase activity in cells infected for 4-5 days with NLRluc recombinants in the presence serial dilutions of the inhibitor. Table 16 is the key for the data in Table 17.

Which EC50 does the source give for `CN1CCC2C(C)(C)[C@H](c3ccc(C(=O)O)cc3)CC[C@]2(C)C1` (single isomer, unassigned) [Example 90] here?
Its EC50 is > 3000 nM.

How did the EC50 turn out when `CN1CCC2C(C)(C)[C@@H](c3ccc(C(=O)O)cc3)CC[C@]2(C)C1` (single isomer, unassigned) [Example 91] was run?
The EC50 was > 3000 nM.

Which EC50 does the source give for `CC1(C)C(c2ccc(C(=O)O)cc2)=CC[C@]2(C)CN(C(=O)c3ccccc3)CC=C12` [Example 1, (S)-4-(2-benzoyl-5,5,8a-trimethyl-1,2,3,5,8,8a-hexahydroisoquinolin-6-yl)benzoic acid] here?
The EC50 was > 3000 nM.

`CC1(C)C(c2ccc(C(=O)O)cc2)=CC[C@]2(C)CN(C(=O)c3cccc(F)c3)CC=C12` [Example 2] was tested. Which EC50 did it give?
The EC50 was > 3000 nM.

How did the EC50 turn out when `CC1(C)C(c2ccc(C(=O)O)cc2)=CC[C@]2(C)CN(C(=O)c3ccc(F)cc3)CC=C12` [Example 3] was run?
The EC50 was > 3000 nM.

For `CC1(C)C(c2ccc(C(=O)O)cc2)=CC[C@]2(C)CN(C(=O)c3cccc(F)c3F)CC=C12` [Example 4], which EC50 is on record?
Its EC50 is > 3000 nM.

For `CC1(C)C(c2ccc(C(=O)O)cc2)=CC[C@]2(C)CN(C(=O)c3ccc(F)cc3F)CC=C12` [Example 5], which EC50 is on record?
The EC50 was > 3000 nM.

`CC1(C)C(c2ccc(C(=O)O)cc2)=CC[C@]2(C)CN(C(=O)c3cc(F)ccc3F)CC=C12` [Example 6] was tested. Which EC50 did it give?
Its EC50 is > 3000 nM.

Which EC50 does the source give for `CC1(C)C(c2ccc(C(=O)O)cc2)=CC[C@]2(C)CN(C(=O)c3ccc(F)c(F)c3)CC=C12` [Example 7] here?
The EC50 was > 3000 nM.

With `CC1(C)C(c2ccc(C(=O)O)cc2)=CC[C@]2(C)CN(C(=O)c3cc(F)cc(F)c3)CC=C12` [Example 8] as the compound, how does the EC50 read?
Its EC50 is > 3000 nM.

For `CC1(C)C(c2ccc(C(=O)O)cc2)=CC[C@]2(C)CN(C(=O)C(=O)N3CC=C4C(C)(C)C(c5ccc(C(=O)O)cc5)=CC[C@]4(C)C3)CC=C12` [Example 9], which EC50 is on record?
Its EC50 is > 3000 nM.

Which EC50 does the source give for `CC1(C)C(c2ccc(C(=O)O)cc2)=CC[C@]2(C)CN(C(=O)C(=O)O)CC=C12` [Example 10] here?
The EC50 was > 3000 nM.

With `CC1(C)C(c2ccc(C(=O)O)cc2)=CC[C@]2(C)CN(C(=O)c3cccc(C(=O)O)c3)CC=C12` [Example 12] as the compound, how does the EC50 read?
Its EC50 is > 3000 nM.

Which EC50 does the source give for `CC1(C)C(c2ccc(C(=O)O)cc2)=CC[C@]2(C)CN(C(=O)c3ccc(C(=O)O)cc3)CC=C12` [Example 13] here?
Its EC50 is > 3000 nM.

With `CC1(C)C(c2ccc(C(=O)O)cc2)=CC[C@]2(C)CN(C(=O)c3ccccc3C(=O)O)CC=C12` [Example 14] as the compound, how does the EC50 read?
The EC50 was > 3000 nM.

For `CC(C)(C)OC(=O)N[C@H]1CC[C@H](C(=O)N2CC=C3C(C)(C)C(c4ccc(C(=O)O)cc4)=CC[C@]3(C)C2)CC1` [Example 15], which EC50 is on record?
The EC50 was > 3000 nM.

With `CC(C)(C)OC(=O)N[C@H]1CC[C@@H](C(=O)N2CC=C3C(C)(C)C(c4ccc(C(=O)O)cc4)=CC[C@]3(C)C2)CC1` [Example 16] as the compound, how does the EC50 read?
The EC50 was > 3000 nM.

With `COc1cccc(C(=O)N2CC=C3C(C)(C)C(c4ccc(C(=O)O)cc4)=CC[C@]3(C)C2)c1` [Example 18] as the compound, how does the EC50 read?
The EC50 was > 3000 nM.

`COc1ccc(C(=O)N2CC=C3C(C)(C)C(c4ccc(C(=O)O)cc4)=CC[C@]3(C)C2)cc1` [Example 19] was tested. Which EC50 did it give?
Its EC50 is > 3000 nM.

`CC1(C)C(c2ccc(C(=O)O)cc2)=CC[C@]2(C)CN(C(=O)c3ccccc3C(N)=O)CC=C12` [Example 20] was tested. Which EC50 did it give?
Its EC50 is > 3000 nM.

For `CC1(C)C(c2ccc(C(=O)O)cc2)=CC[C@]2(C)CN(C(=O)c3cccc(C(N)=O)c3)CC=C12` [Example 21], which EC50 is on record?
Its EC50 is > 3000 nM.

With `CC1(C)C(c2ccc(C(=O)O)cc2)=CC[C@]2(C)CN(C(=O)c3ccc(C(N)=O)cc3)CC=C12` [Example 22] as the compound, how does the EC50 read?
Its EC50 is > 3000 nM.

With `CN(C)c1ccccc1C(=O)N1CC=C2C(C)(C)C(c3ccc(C(=O)O)cc3)=CC[C@]2(C)C1` [Example 23] as the compound, how does the EC50 read?
Its EC50 is > 3000 nM.

Same assay, conditions: Renilla, NL43, read-out: 10% FBS EC50, 10% FBS, numeric values

For `CC(C)(C)OC(=O)N1CCN(c2ccccc2C(=O)N2CC=C3C(C)(C)C(c4ccc(C(=O)O)cc4)=CC[C@]3(C)C2)CC1` [Example 11, (S)-4-(2-(2-(4-(tert-butoxycarbonyl)piperazin-1-yl)benzoyl)-5,5,8a-trimethyl-1,2,3,5,8,8a-hexahydroisoquinolin-6-yl)benzoic acid], which EC50 is on record?
Its EC50 is 460 nM.

How did the EC50 turn out when `COc1ccccc1C(=O)N1CC=C2C(C)(C)C(c3ccc(C(=O)O)cc3)=CC[C@]2(C)C1` [Example 17] was run?
Its EC50 is 1690 nM.
